Assay results taken from patent publication US7910751B2, “Heterocyclidene acetamide derivative” (Mochida Pharmaceutical Co., Ltd., priority 2005, dated 2011).

Biological target: T1, human TRPV1 (Homo sapiens, UniProt Q8NER1)
T1 construct: expressed in transfected cells; host or cells: CHO-K1
Assay: Measurement of capsaicin-induced Ca influx in human TRPV1 transformed CHO cell line using FDSS-6000
Assay type: cell-based
Conditions: concentration at which the capsaicin concentration-reaction curve is shifted two times to the right, human TRPV1 transformed CHO cells
Description: [Measurement of Capsaicin-Induced Ca Influx in Human TRPV1 Transformed CHO Cell Line]
(1) Establishment of Human TRPV1 Transformed CHO Cell Line
Human vanilloid receptor 1 (hTRPV1) cDNA was cloned from a human brain. The cloned hTRPV1 cDNA was incorporated in a pCAGGS vector. The gene of the vector was introduced to a CHO-K1 cell line, thus performing transformation. Clones obtained by limiting dilution were stimulated with capsaicin. Clones with a high responsiveness were selected using an increase in the Ca concentration as an indicator. The selected clones were used for the following experiment.
(2) Measurement of Ca Influx Using FDSS-6000
The human TRPV1 transformed CHO cells were seeded in a 96-well plate (with black walls and transparent bottoms, manufactured by Greiner) at a density of 40,000 cells per well. The cells were cultured at 37° C. in 5% CO2 for one night. A loading solution of FLIPR Calcium 3 assay kit (manufactured by Molecular Devices Corporation) containing 2.5 mmol/L of probenecid was then added to each of the wells in the same amount as the culture medium, and the cells were cultured at 37° C. for 60 minutes. After the cells were stimulated with capsaicin (1 nmol/L to 1 μmol/L), the change in the Ca concentration in the cells was measured using FDSS-6000 (λex: 480 nm, λem: 540 nm, manufactured by Hamamatsu Photonics K.K.) for three minutes. The integrated values of the increase rate of the Ca concentration in the cells were calculated for a group treated with the compounds of the present invention and a group treated with a medium, thus allowing capsaicin concentration-reaction curves to be obtained. A concentration (A2 value) of each of the compounds of the present invention, at which the capsaicin concentration-reaction curve obtained when the cells were treated with the medium was shifted two times to the right side, was calculated. The inhibiting effects of the test compounds were compared using this value as an indicator.
In the case where a compound of the present invention is an agonist, when the cells are treated with the compound of the present invention prior to the capsaicin stimulation, the Ca influx is observed. In Table 1, compounds of the present invention having an A2 value of less than 100 nM are represented by A, and compounds having an A2 value of 100 nM or more are represented by B. When the A2 values of the compounds of the present invention were measured by the above-described method, the compounds have an intensity of 1 μM or less.

T1 sequence (Q8NER1 whole entry): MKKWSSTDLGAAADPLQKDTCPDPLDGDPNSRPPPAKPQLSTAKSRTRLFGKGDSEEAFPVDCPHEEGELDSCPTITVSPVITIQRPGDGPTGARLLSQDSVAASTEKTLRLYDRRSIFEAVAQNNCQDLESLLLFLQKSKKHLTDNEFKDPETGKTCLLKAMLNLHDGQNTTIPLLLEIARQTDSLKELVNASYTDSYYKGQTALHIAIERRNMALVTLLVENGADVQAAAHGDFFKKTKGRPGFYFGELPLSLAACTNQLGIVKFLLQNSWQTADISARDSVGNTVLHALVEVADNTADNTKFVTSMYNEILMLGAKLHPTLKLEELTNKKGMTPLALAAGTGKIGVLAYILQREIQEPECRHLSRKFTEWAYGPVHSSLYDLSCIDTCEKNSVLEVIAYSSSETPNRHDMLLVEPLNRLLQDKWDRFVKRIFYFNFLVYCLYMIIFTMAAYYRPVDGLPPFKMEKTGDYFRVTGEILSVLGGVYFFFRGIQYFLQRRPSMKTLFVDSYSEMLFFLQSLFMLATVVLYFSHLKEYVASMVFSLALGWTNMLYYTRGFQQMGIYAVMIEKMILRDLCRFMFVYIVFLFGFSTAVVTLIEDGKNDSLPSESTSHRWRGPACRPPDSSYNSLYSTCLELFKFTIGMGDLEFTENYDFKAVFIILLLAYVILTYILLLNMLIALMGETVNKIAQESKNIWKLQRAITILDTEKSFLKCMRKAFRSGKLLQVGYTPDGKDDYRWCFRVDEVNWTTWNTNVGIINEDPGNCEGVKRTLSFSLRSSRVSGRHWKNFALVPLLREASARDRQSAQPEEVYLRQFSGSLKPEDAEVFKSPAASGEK

Row | SMILES | A2 VALUE
1 | O=C(/C=C1\CCCOc2cc(C(F)(F)F)ccc21)Nc1ccc(Oc2ccccc2)nc1 [Example 22, (E)-2-(8-trifluoromethyl-3,4-dihydrobenzo[b]oxepin-5(2H)-ylidene)-N-(6-phenoxypyridin-3-yl)acetamide] | B (compounds having an A2 value of 100 nM or more are represented by B)
2 | O=C(/C=C1\CCCOc2cc(C(F)(F)F)ccc21)Nc1ccc2c(c1)C(=O)CCC2 [Example 23, (E)-2-(8-trifluoromethyl-3,4-dihydrobenzo[b]oxepin-5(2H)-ylidene)-N-(1,2,3,4-tetrahydro-1-oxonaphthalen-7-yl)acetamide] | A (compounds of the present invention having an A2 value of less than 100 nM are represented by A)
3 | O=C(/C=C1\CCCOc2cc(C(F)(F)F)ccc21)Nc1ccc2c(c1)C(=O)OC2 [Example 24, (E)-2-(8-trifluoromethyl-3,4-dihydrobenzo[b]oxepin-5(2H)-ylidene)-N-(1,3-dihydro-1-oxoisobenzofuran-6-yl)acetamide] | A (compounds of the present invention having an A2 value of less than 100 nM are represented by A)
4 | O=C(/C=C1\CCCOc2cc(C(F)(F)F)ccc21)Nc1ccc(C(=O)N2CCOCC2)cc1 [Example 25, (E)-2-(8-trifluoromethyl-3,4-dihydrobenzo[b]oxepin-5(2H)-ylidene)-N-(4-(4-morpholinylcarbonyl)phenyl)acetamide] | B (compounds having an A2 value of 100 nM or more are represented by B)
5 | O=C(/C=C1\CCCOc2cc(C(F)(F)F)ccc21)Nc1ccc(S(=O)(=O)N2CCOCC2)cc1 [Example 26, (E)-2-(8-trifluoromethyl-3,4-dihydrobenzo[b]oxepin-5(2H)-ylidene)-N-(4-(4-morpholinylsulfonyl)phenyl)acetamide] | B (compounds having an A2 value of 100 nM or more are represented by B)
6 | O=C(/C=C1\CCCOc2cc(C(F)(F)F)ccc21)Nc1ccc(Oc2ccc(C(F)(F)F)cn2)cc1 [Example 27] | B (compounds having an A2 value of 100 nM or more are represented by B)
7 | O=C(/C=C1\CCCOc2cc(C(F)(F)F)ccc21)Nc1cccc(-c2cnc3ccccc3n2)c1 [Example 28, (E)-2-(8-trifluoromethyl-3,4-dihydrobenzo[b]oxepin-5(2H)-ylidene)-N-(3-(quinoxalin-2-yl)phenyl)acetamide] | B (compounds having an A2 value of 100 nM or more are represented by B)
8 | O=C(/C=C1\CCCOc2cc(C(F)(F)F)ccc21)Nc1ccc(Cc2ccncc2)cc1 [Example 29, (E)-2-(8-trifluoromethyl-3,4-dihydrobenzo[b]oxepin-5(2H)-ylidene)-N-(4-((pyridin-4-yl)methyl)phenyl)acetamide] | B (compounds having an A2 value of 100 nM or more are represented by B)
9 | CC(NC(=O)/C=C1\CCCOc2cc(C(F)(F)F)ccc21)c1ccccn1 (stereo not drawn) [Example 30, (E)-2-(8-trifluoromethyl-3,4-dihydrobenzo[b]oxepin-5(2H)-ylidene)-N-(1-(pyridin-2-yl)ethyl)acetamide] | B (compounds having an A2 value of 100 nM or more are represented by B)
10 | O=C(/C=C1\CCCOc2cc(C(F)(F)F)ccc21)NC(c1ccccc1)c1ccccn1 (stereo not drawn) [Example 31, (E)-2-(8-trifluoromethyl-3,4-dihydrobenzo[b]oxepin-5(2H)-ylidene)-N-(phenyl(pyridin-2-yl)methyl)acetamide] | B (compounds having an A2 value of 100 nM or more are represented by B)
11 | O=C(/C=C1\CCCOc2cc(C(F)(F)F)ccc21)NCc1ccc2c(c1)OCCO2 [Example 32, (E)-2-(8-trifluoromethyl-3,4-dihydrobenzo[b]oxepin-5(2H)-ylidene)-N-((2,3-dihydrobenzo[b][1,4]dioxin-6-yl)methyl)acetamide] | B (compounds having an A2 value of 100 nM or more are represented by B)
12 | CC(NC(=O)/C=C1\CCCOc2cc(C(F)(F)F)ccc21)c1ccc2c(c1)OCCO2 (stereo not drawn) [Example 33, (E)-2-(8-trifluoromethyl-3,4-dihydrobenzo[b]oxepin-5(2H)-ylidene)-N-(1-(2,3-dihydrobenzo[b][1,4]dioxin-6-yl)ethyl)acetamide] | B (compounds having an A2 value of 100 nM or more are represented by B)
13 | O=C(/C=C1\CCCOc2cc(C(F)(F)F)ccc21)NCC1COc2ccccc2O1 (stereo not drawn) [Example 34, (E)-2-(8-trifluoromethyl-3,4-dihydrobenzo[b]oxepin-5(2H)-ylidene)-N-((2,3-dihydrobenzo[b][1,4]dioxin-2-yl)methyl)acetamide] | B (compounds having an A2 value of 100 nM or more are represented by B)
14 | O=C(/C=C1\CCCOc2cc(C(F)(F)F)ccc21)NCc1ccc2c(c1)CCO2 [Example 35, (E)-2-(8-trifluoromethyl-3,4-dihydrobenzo[b]oxepin-5(2H)-ylidene)-N-((2,3-dihydrobenzofuran-5-yl)methyl)acetamide] | B (compounds having an A2 value of 100 nM or more are represented by B)
15 | O=C(/C=C1\CCCOc2cc(C(F)(F)F)ccc21)NCc1ccccc1N1CCOCC1 [Example 36, (E)-2-(8-trifluoromethyl-3,4-dihydrobenzo[b]oxepin-5(2H)-ylidene)-N-(2-morpholinophenyl)methyl-acetamide] | B (compounds having an A2 value of 100 nM or more are represented by B)
16 | O=C(/C=C1\CCCOc2cc(C(F)(F)F)ccc21)NCc1ccc(-c2csnn2)cc1 [Example 37, (E)-2-(8-trifluoromethyl-3,4-dihydrobenzo[b]oxepin-5(2H)-ylidene)-N-(4-(1,2,3-thiadiazolo-4-yl)phenylmethyl)acetamide] | B (compounds having an A2 value of 100 nM or more are represented by B)
17 | O=C(/C=C1\CCCOc2cc(C(F)(F)F)ccc21)NCc1ccc(-n2cccn2)cc1 [Example 38, (E)-N-(4-(1H-pyrazolo-1-yl)phenylmethyl)-2-(8-trifluoromethyl-3,4-dihydrobenzo[b]oxepin-5(2H)-ylidene)acetamide] | B (compounds having an A2 value of 100 nM or more are represented by B)
18 | Cc1nc(-c2ccc(Cl)cc2)sc1CNC(=O)/C=C1\CCCOc2cc(C(F)(F)F)ccc21 [Example 39, (E)-N-((2-(4-chlorophenyl)-4-methylthiazol-5-yl)methyl)-2-(8-trifluoromethyl-3,4-dihydrobenzo[b]oxepin-5(2H)-ylidene)acetamide] | B (compounds having an A2 value of 100 nM or more are represented by B)
19 | O=C(/C=C1\CCCOc2cc(C(F)(F)F)ccc21)NCc1nnc2ccccn12 [Example 40] | B (compounds having an A2 value of 100 nM or more are represented by B)
20 | Cn1nc(NC(=O)/C=C2\CCCOc3cc(C(F)(F)F)ccc32)c2cccnc21 [Example 41, (E)-2-(8-trifluoromethyl-3,4-dihydrobenzo[b]oxepin-5(2H)-ylidene)-N-(1-methyl-1H-pyrazolo[3,4-b]pyridin-3-yl)acetamide] | B (compounds having an A2 value of 100 nM or more are represented by B)
21 | O=C(/C=C1\CCCOc2cc(C(F)(F)F)ccc21)Nc1n[nH]c2ccccc12 [Example 42, (E)-2-(8-trifluoromethyl-3,4-dihydrobenzo[b]oxepin-5(2H)-ylidene)-N-(1H-indazol-3-yl)acetamide] | B (compounds having an A2 value of 100 nM or more are represented by B)
22 | CCn1c(NC(=O)/C=C2\CCCOc3cc(C(F)(F)F)ccc32)nc2ccccc21 [Example 43, (E)-N-(1-ethyl-1H-benzo[d]imidazolo-2-yl)-2-(8-trifluoromethyl-3,4-dihydrobenzo[b]oxepin-5(2H)-ylidene)acetamide] | B (compounds having an A2 value of 100 nM or more are represented by B)
23 | O=C(/C=C1\CCCOc2cc(C(F)(F)F)ccc21)Nc1ccnc2ncnn12 [Example 44, (E)-N-([1,2,4]triazolo[1,5-a]pyrimidin-7-yl)-2-(8-trifluoromethyl-3,4-dihydrobenzo[b]oxepin-5(2H)-ylidene)acetamide] | B (compounds having an A2 value of 100 nM or more are represented by B)
24 | O=C(/C=C1\CCCOc2cc(C(F)(F)F)ccc21)NC1CCCc2cccnc2C1 (stereo not drawn) [Example 45, (E)-2-(8-trifluoromethyl-3,4-dihydrobenzo[b]oxepin-5(2H)-ylidene)-N-(6,7,8,9-tetrahydro-5H-cyclohepta[b]pyridin-8-yl)acetamide] | B (compounds having an A2 value of 100 nM or more are represented by B)
